Data: US6281214A, “Biphenyl derivatives” (Eisai Co., Ltd, priority 1994, dated 2001)
Like-named read-outs stand apart in the source and are kept apart here.

How the values were obtained:
Set-up in all cases: species or system SD rats
serotonin S2 receptor = target: T1, serotonin S2 receptor (Rattus norvegicus, UniProt P14842); test: serotonin S2 receptor binding test ([3H] Ketanserin Binding Test); details: 1 nM [3H] Ketanserin, rat cortex, 37° C., 15 minutes
T1 construct: The receptor fraction prepared from the cortex was molten and suspended; from tissue; host or cells: cerebral cortex of SD rats (membrane fraction)
Procedure: (§1) The compounds of the present invention were subjected to each of serotonin S2 receptor binding test, dopamine D2 receptor binding test and adrenergic α1 receptor binding test.
(§2) The following reagents were used in this test.
(§3) These reagents and samples were each dissolved in 10% ethanol before use. Among them, water-insoluble compounds were each dissolved in ethanol and the obtained solution was diluted with distilled water to an ethanol concentration of 10%. Further, Methylsergide maleate was used in a state dissolved in distilled water.
(§4) SD rats aged 6 to 8 weeks were used.
(§5) SD rats were each slaughtered with a guillotine to extirpate its cerebrum. The cortex and corpus striatum were separated from the cerebrum. The former was used in serotonin S2 receptor binding test and adrenergic α1, receptor binding test, while the latter was used in dopamine D2 receptor binding test.
(§6) The cortex was homogenized in a 0.32 M sucrose solution in an amount ten times the wet weight of the cortex by the use of a teflon glass homogenizer and the resulting mixture was centrifuged at 10,000×G for 20 minutes. The obtained sediment was suspended in 50 mM Tris hydrochloride (pH 7.4) in an amount ten times the initial wet weight of the cortex by the use of a histocothrom, and the obtained suspension was centrifuged at 10,000×G for 20 minutes. This operation was repeated twice. The obtained sediment was suspended in 50 mM Tris hydrochloride (pH 7.4) in an amount 20 times the initial wet weight of the cortex by the use of a histocothrom. The suspension thus prepared was used as a receptor fraction. This receptor fraction was stored at -80° C. until use.
4. [^3 ] Ketanserin Binding Test
The receptor fraction prepared from the cortex was molten and suspended by the use of a histocothrom. The resulting suspension was incubated together with 1 nM-[^3 H] Ketanserin at 37° C. for 15 minutes. The resulting reaction system was filtered through a Whatman GF/B glass filter with an MR-30R type cell harvester mfd. by Blandel. The resulting filter was washed twice with 5 ml of 50 mM Tris hydrochloride (ph 7.4) cooled with ice and the radioactivity of the Ketanserin bound the receptor was determined by the use of a liquid scintillation counter with 5 ml of ACS II. The binding detected in the presence of […] of Methylsergide was regarded as nonspecific binding.
(§7) Each IC50 value was calculated by the probit method and each Ki value was determined by the following formula: [formula]
(§8) In the above formula, C represents the concentration of radioligand, and Kd represents the affinity of radioligand for the receptor as determined by the Scatchard analysis.

dopamine D2 receptor = target: T2, dopamine D2 receptor (Rattus norvegicus, UniProt P61169); test: dopamine D2 receptor binding test ([3H] Spiperone Binding Test); details: 1 nM [3H] Spiperone, rat corpus striatum, room temperature, 60 minutes
T2 construct: the receptor fraction prepared from the corpus striatum was molten and suspended; from tissue; host or cells: corpus striatum of SD rats (membrane fraction)
Procedure: as §1, §2, §3, §4, §5
On the other hand, the corpus striatum was homogenized in a 0.32 M sucrose solution in an amount ten times the wet weight of the corpus striatum by the use of a teflon glass homogenizer and the obtained mixture was centrifuged at 1,000×G for 20 minutes. The obtained supernatant was centrifuged at 10,000×G for 20 minutes. The obtained sediments were suspended together in 50 mM Tris hydrochloride (pH 7.4) in an amount ten times the initial wet weight of the corpus striatum by the use of a histocothrom, and the obtained suspension was centrifuged at 10,000×G for 20 minutes. This operation was repeated thrice. The resulting sediment was suspended in 50 mM Krebs-Tris (pH 7.4) in an amount 100 times the initial wet weight of the corpus striatum by the use of a histocothrom. The obtained suspension was used as a receptor fraction. This receptor fraction was stored at -80° C. until use.
as §7, §8
5. [^3 H] Spiperone Binding Test
(§9) This test was conducted in the same manner as that of the binding test of [^3 H] Ketanserin except that the receptor fraction prepared from the corpus striatum was molten and suspended with a histocothrom, and the obtained suspension was incubated together with 1 nM-[^3 H], Spiperone at room temperature for 60 minutes and that the binding detected in the presence of 10 μl of Spiperone was regarded as nonspecific binding.

adrenergic α1 receptor = adrenergic α1 receptor binding test ([3H] Prazosin Binding Test); details: 1 nM [3H] Prazosin, rat cortex, room temperature, 60 minutes
Procedure: as §1, §2, §3, §4, §5, §6, §7, §8
6. [^3 H] Prazosin Binding Test
as §9, with “cortex” for “corpus striatum”, “H] Prazosin” for “H], Spiperone”, “Phentolamine” for “Spiperone”

[1] = read-out: Ki value, dopamine D2 receptor

T2 sequence (P61169 whole entry): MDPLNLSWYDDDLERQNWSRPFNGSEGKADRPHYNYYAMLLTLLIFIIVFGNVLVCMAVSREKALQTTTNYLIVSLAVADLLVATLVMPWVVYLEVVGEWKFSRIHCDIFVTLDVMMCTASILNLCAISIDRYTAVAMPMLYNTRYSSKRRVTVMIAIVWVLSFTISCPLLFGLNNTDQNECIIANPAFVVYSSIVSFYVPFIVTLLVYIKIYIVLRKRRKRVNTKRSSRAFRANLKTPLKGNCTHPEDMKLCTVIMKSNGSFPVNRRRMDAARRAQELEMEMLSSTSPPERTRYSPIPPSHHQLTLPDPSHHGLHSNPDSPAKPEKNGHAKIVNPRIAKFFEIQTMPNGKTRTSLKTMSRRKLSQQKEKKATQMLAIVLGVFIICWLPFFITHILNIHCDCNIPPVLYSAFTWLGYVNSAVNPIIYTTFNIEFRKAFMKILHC
T1 sequence (P14842 whole entry): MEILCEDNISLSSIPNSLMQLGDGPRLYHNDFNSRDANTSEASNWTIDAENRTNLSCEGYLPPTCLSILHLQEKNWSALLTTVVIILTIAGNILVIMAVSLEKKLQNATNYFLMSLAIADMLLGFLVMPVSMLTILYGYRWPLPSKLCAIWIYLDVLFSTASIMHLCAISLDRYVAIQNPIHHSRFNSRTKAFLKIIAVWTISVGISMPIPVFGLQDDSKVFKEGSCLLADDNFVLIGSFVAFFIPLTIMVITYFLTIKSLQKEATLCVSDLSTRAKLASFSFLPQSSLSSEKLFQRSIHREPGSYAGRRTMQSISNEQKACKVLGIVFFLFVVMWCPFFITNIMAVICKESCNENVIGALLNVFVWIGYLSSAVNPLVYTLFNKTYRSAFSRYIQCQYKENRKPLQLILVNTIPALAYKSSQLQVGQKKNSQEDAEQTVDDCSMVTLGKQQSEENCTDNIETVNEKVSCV

| SMILES | Ki (serotonin S2 receptor) | Ki (dopamine D2 receptor; [1]) | Ki (adrenergic α1 receptor) | Ki (dopamine D2 receptor; Ki value, dopamine D2 receptor) |
| --- | --- | --- | --- | --- |
| CCC(F)c1cc(N2CCN(CCc3ccccn3)CC2)cc(-c2ccccc2C)c1Cl (stereo not drawn) [Example 213, 1-[2-(2-Pyridyl)ethyl]-4-[3-(2-tolyl)-4-chloro-5-(1-fluoropropyl)]phenylpiperazine] | 10.3 nM | 14.3 nM | 236 nM | – |
| C/C=C/c1cc(N2CCN(CC)CC2)cc(-c2ccccc2)c1OC [Example 100, 1-Ethyl-4-[3-phenyl-4-methoxy-5-(1-propenyl)]phenylpiperazine hydrochloroide] | 827 nM | 82.7 nM | 846 nM | – |
| CCN1CCN(c2cc(-c3ccccc3C)c(Cl)c(S(C)(=O)=O)c2)CC1 [Example 158, 1-Ethyl-4-[3-(2-tolyl)-4-chloro-5-methanesulfonyl]phenylpiperazine] | 124 nM | 12.4 nM | > 1000 nM | – |
| CCN1CCN(c2cc(-c3ccccc3)c(OC)c(-c3ccccn3)c2)CC1 [Example 97, 1-Ethyl-4-[3-phenyl-4-methoxy-5-(2-pyridyl)]phenylpiperazine] | 247 nM | > 1000 nM | > 1000 nM | – |
| CCC(F)c1cc(N2CCN(CC)CC2)cc(-c2ccccc2C)c1Cl (stereo not drawn) [Example 131, 1-Ethyl-4-[3-(2-tolyl)-4-chloro-5-(1-fluoropropyl)]phenylpiperazine] | 20.8 nM | 3.3 nM | > 1000 nM | – |
| CCC(F)c1cc(N2CCN(C)CC2)cc(-c2ccccc2C)c1Cl (stereo not drawn) [Example 25, 1-Methyl-4-[3-(2-tolyl)-4-chloro-5-(1-fluoropropyl)]phenylpiperazine] | 8.27 nM | 2.4 nM | > 1000 nM | – |
| CCN1CCN(c2cc(-c3ccccc3)c(OC)c(S(=O)(=O)CC)c2)CC1 [Example 133, 1-Ethyl-4-(3-phenyl-4-methoxy-5-ethanesulfonyl)phenylpiperazine] | 9.02 nM | 28.7 nM | > 1000 nM | – |
| CC[C@H](F)c1cc(N2CCN(C)CC2)cc(-c2ccccc2C)c1Cl [Example 221, 1-Methyl-4-{3-(2-tolyl)-4-chloro-5-[1-(S)-fluoropropyl]}phenylpiperazine] | 4.53 nM | 3.45 nM | 486 nM | – |
| CCN1CCN(c2cc(-c3ccccc3)c(OC)c(C(C)(C)O)c2)CC1 [Example 80] | 177 nM | 810 nM | > 1000 nM | – |
| CCCCOC(CC)c1cc(N2CCN(CC)CC2)cc(-c2ccccc2)c1OC (stereo not drawn) [Example 81] | 241 nM | 38.3 nM | > 1000 nM | – |
| CCCS(=O)(=O)Nc1cc(N2CCN(CC)CC2)cc(-c2ccccc2C)c1Cl [Example 153, 1-Ethyl-4-[3-(2-tolyl)-4-chloro-5-propanesulfonylamino]phenylpiperazine] | 4.19 nM | 1.53 nM | 68.7 nM | – |
| CCN1CCN(c2cc(CCCO)cc(-c3ccccc3)c2OC)CC1 [Example 63, 1-Ethyl-4-[2-methoxy-3-phenyl-5-(3-hydroxypropyl)]phenylpiperazine] | 703 nM | > 1000 nM | > 1000 nM | – |
| CCCC(F)c1cc(N2CCN(CC)CC2)cc(-c2ccccc2)c1OC (stereo not drawn) [Example 47, 1-Ethyl-4-[3-phenyl-4-methoxy-5-(1-fluorobutyl)]phenylpiperazine] | 5.72 nM | 12.9 nM | > 1000 nM | – |
| CCN1CCN(c2cc(-c3ccccc3)c(OC)c(C(F)Cc3ccccc3)c2)CC1 (stereo not drawn) [Example 96, 1-Ethyl-4-[3-phenyl-4-methoxy-5-(1-fluorophenethyl)]phenylpiperazine] | 35.3 nM | 1.33 nM | > 1000 nM | – |
| CCN1CCN(c2cc(-c3ccccc3)c(OC)c(-c3ccccc3)c2)CC1 [Example 56, 1-Ethyl-4-(3,5-diphenyl-4-methoxy)phenylpiperazine] | 212 nM | 111 nM | 503 nM | – |
| CCc1cc(N2CCN(CC)CC2)cc(-c2ccccc2)c1OC [Example 70] | 128 nM | – | 322 nM | 41.9 nM |
| CCC(F)c1cc(N2CCN(C)CC2)cc(-c2ccccc2C#N)c1Cl (stereo not drawn) [Example 20, 1-Methyl-4-[3-(2-cyanophenyl)-4-chloro-5-(1-fluoropropyl)]phenylpiperazine] | 6.11 nM | 2.82 nM | 314 nM | – |
| CCCS(=O)(=O)c1cc(N2CCN(CC)CC2)cc(-c2ccccc2)c1OC [Example 170, 1-Ethyl-4-(3-phenyl-4-methoxy-5-propanesulfonyl)phenylpiperazine] | 2.77 nM | 34.2 nM | > 1000 nM | – |
| CCN1CCN(c2cc(N)c(OC)c(-c3ccccc3)c2)CC1 [Example 110, 1-Ethyl-4-(3-phenyl-4-methoxy-5-amino)phenylpiperazine] | > 1000 nM | > 1000 nM | > 1000 nM | – |
| CCN1CCN(c2cc(C#N)c(OC)c(-c3ccccc3)c2)CC1 [Example 89, 1-Ethyl-4-(3-phenyl-4-methoxy-5-cyano)phenylpiperazine] | 310 nM | – | > 1000 nM | 44.6 nM |
| CCC(F)c1cc(N2CCN(CC)CC2)cc(-c2ccccc2C)c1C#N (stereo not drawn) [Example 164, 1-Ethyl-4-[3-(2-tolyl)-4-cyano-5-(1-fluoropropyl)]phenylpiperazine] | 12 nM | 1.62 nM | > 1000 nM | – |
| CCS(=O)(=O)c1cc(N2CCN(CCc3ccccn3)CC2)cc(-c2ccc(F)cc2)c1OC [Example 198, 1-[2-(2-Pyridyl)ethyl]-4-[3-(4-fluorophenyl)-4-methoxy-5-ethanesulfonyl]phenylpiperazine] | 1.06 nM | 12.1 nM | 62.7 nM | – |
| CCN1CCN(c2cc(-c3ccccc3C)c(Cl)c(S(=O)(=O)N(C)C)c2)CC1 [Example 154, 1-Ethyl-4-[3-(2-tolyl)-4-chloro-5-dimethylaminosulfonyl]phenylpiperazine] | 153 nM | 2.59 nM | > 1000 nM | – |
| CCC(F)c1cc(N2CCN(CC)CC2)cc(-c2ccccc2)c1Cl (stereo not drawn) [Example 127, 1-Ethyl-4-[3-phenyl-4-chloro-5-(1-fluoropropyl)]phenylpiperazine] | 11.4 nM | 1.04 nM | 65.9 nM | – |
| CCN1CCN(c2cc(-c3ccccc3)c(OC)c(S(=O)(=O)CCF)c2)CC1 [Example 172, 1-Ethyl-4-[3-phenyl-4-methoxy-5-(2-fluoroethane)sulfonyl]phenylpiperazine] | 30.3 nM | 48.9 nM | > 1000 nM | – |
| CCC(F)c1cc(N2CCN(C)CC2)cc(-c2ccccc2CO)c1Cl (stereo not drawn) [Example 207] | 81.1 nM | 240 nM | > 1000 nM | – |
| CCN1CCN(c2cc(-c3ccccc3C)c(Cl)c(S(=O)(=O)Nc3ccccc3)c2)CC1 [Example 166, 1-Ethyl-4-[3-(2-tolyl)-4-chloro-5-phenylaminosulfony]phenylpiperazine] | 5.42 nM | 1.42 nM | > 1000 nM | – |
| CCCS(=O)(=O)Nc1cc(N2CCN(CC)CC2)cc(-c2ccccc2CC)c1Cl [Example 194, 1-Ethyl-4-[3-(2-ethylphenyl)-4-chloro-5-propanesulfonylamino]phenylpiperazine] | 4.45 nM | 0.83 nM | > 1000 nM | – |
